From patent US20030161827A1, “Therapies that improve graft survival” (priority 2000, published 2003)

Tested on: renal allograft
Test: Unilateral renal transplantation, mAb and sirolimus (Example 2)
Type: in vivo, monkey
Conditions: n=4 per group; treatment until day 56, followed until day 119
Method: Unilateral renal transplantation was performed in 12 blood group matched and MLR mismatched animals. […] Sirolimus was administered by daily gavage at 1 mg/kg at day 0 to day 13 and then 0.5 mg/kg from day 13 to day 56. All animals were off immunosuppression after day 56 and were then followed until day 119.

CO[C@H]1C[C@@H]2CC[C@@H](C)[C@@](O)(O2)C(=O)C(=O)N2CCCC[C@H]2C(=O)O[C@H]([C@H](C)C[C@@H]2CC[C@@H](O)[C@H](OC)C2)CC(=O)[C@H](C)/C=C(\C)[C@@H](O)[C@@H](OC)C(=O)[C@H](C)C[C@H](C)/C=C/C=C/C=C/1C [sirolimus]
mean survival: 23 days
